Common to all, as to assay type: cell-based
The subject of one assay is Rhizoctonia solani. The experiment in a line: Inhibition test of mycelial growth against the genus Rhizoctonia (PSA plate). The note with it: compound alone, 20° C., 4 days. The protocol:
A mycangium (diameter: 4 mm) obtained by precultivation was transplanted on PSA containing a chemical in a prescribed concentration and then cultured at room temperature of 20° C. for 4 days, followed by measuring a diameter of the grown mycangium to determine an inhibition rate of mycelial growth (%). In addition, an expected value of the inhibition rate calculated according to the Colby's formula in the same manner as that in the foregoing Test Example 1 was listed in parentheses of Tables 4 to 6.

A further assay deals with Pythium graminicola. The experiment in a line: Inhibition test of mycelial growth against the genus Pythium (PSA plate). Particulars: compound alone, 20° C., 3 days. How it is done:
A mycangium (diameter: 4 mm) obtained by precultivation was transplanted on PSA containing a chemical in a prescribed concentration and then cultured at room temperature of 20° C. for 3 days, followed by measuring a diameter of the grown mycangium to determine an inhibition rate of mycelial growth (%). In addition, an expected value of the inhibition rate was calculated according to the following Colby's formula and listed in parentheses of Tables 1 to 3. […] Colby's formula: x+y−xy/100 x: Inhibition rate of growth of the component (a) alone (%) y: Inhibition rate of growth of the component (b) alone (%)

The next assay concerns Botrytis cinerea. The experiment in a line: Inhibition test of mycelial growth against gray mold (YS liquid medium, 96-well microplate). The note with it: compound alone, 25° C., three days. How it is done: On a YS (yeast extract+sucrose) liquid culture medium, a certain amount of a chemical solution prepared such that a final concentration of each chemical became a concentration at which the test was carried out was mixed. 100 μL of each of the chemical-containing YS liquid culture media was aliquoted into each well of a 96-well microplate. Thereafter, 50 μL of a spore suspension of gray mold whose spore concentration had been prepared as shown in the following tables was aliquoted into each well and cultivated at 25° C. under a light-dark cycle (light period: 16 hours, dark period: 8 hours). Three days after the cultivation, an area of the well bottom covered by the propagated gray mold hyphae was microscopically examined to determine an inhibition rate of growth (%). The inhibition rate of growth was visually examined while defining an area covered by hyphae in a non-treated well as 100. For the non-treatment, a chemical-free YS liquid culture medium was used. In addition, an expected value of the inhibition rate calculated according to the Colby's formula in the same manner as that in the foregoing Test Example 1 was listed in parentheses of Tables 7 to 13.

Where [1] appears, read: Rhizoctonia solani, 96 h, 0.1 ppm, read-out: Inhibition Rate of Mycelial Growth against Rhizoctonia solani (%).
[2] abbreviates: Rhizoctonia solani, 96 h, 1 ppm, read-out: Inhibition Rate of Mycelial Growth against Rhizoctonia solani (%).
Where [3] appears, read: Rhizoctonia solani, 96 h, 10 ppm, read-out: Inhibition Rate of Mycelial Growth against Rhizoctonia solani (%).
The mark [4] stands for this setting: Pythium graminicola, 72 h, read-out: Inhibition Rate of Mycelial Growth against Pythium graminicola (%).
Where [5] appears, read: Pythium graminicola, 72 h, 10 ppm, read-out: Inhibition Rate of Mycelial Growth against Pythium graminicola (%).
[6] abbreviates: Pythium graminicola, 72 h, 100 ppm, read-out: Inhibition Rate of Mycelial Growth against Pythium graminicola (%).
Where [7] appears, read: Botrytis cinerea, 72 h, read-out: Inhibition Rate of Mycelial Growth against Botrytis cinerea (%).
Setting [8] is: Botrytis cinerea, 72 h, 0.78 ppm, read-out: Inhibition Rate of Mycelial Growth against Botrytis cinerea (%).
[9] abbreviates: Botrytis cinerea, 72 h, 1.56 ppm, read-out: Inhibition Rate of Mycelial Growth against Botrytis cinerea (%).

Results on 8 compounds are retold here after patent US9167815B2, “Agricultural or horticultural fungicide composition and method for controlling plant pathogen” (ISHIHARA SANGYO KAISHA, LTD., priority 2011, dated 2015).

In general, inhibition refers to the change of the read-out against control, counted positive when it falls.

For `CO/C=C(/C(=O)OC)c1ccccc1Oc1cc(Oc2ccccc2C#N)ncn1` [azoxystrobin], the “Inhibition Rate of Mycelial Growth against Rhizoctonia solani (%)” value in the assay on Rhizoctonia solani (0.1 ppm) is on record as 4%; in the assay on Rhizoctonia solani (1 ppm) it was 27%; with Rhizoctonia solani (10 ppm), 41%. The results for the “Inhibition Rate of Mycelial Growth against Pythium graminicola (%)” value with Pythium graminicola (10 ppm) and in the assay with Pythium graminicola (100 ppm) were 89% and 100%, respectively. The entries for the “Inhibition Rate of Mycelial Growth against Botrytis cinerea (%)” value with Botrytis cinerea (3.13 ppm), with Botrytis cinerea (6.25 ppm) and with Botrytis cinerea (12.5 ppm) were 0%, 0% and 1%, respectively.

For `CNC(=O)/C(=N/OC)c1ccccc1COc1cc(C)ccc1C` [dimoxystrobin], the “Inhibition Rate of Mycelial Growth against Botrytis cinerea (%)” value in the assay on Botrytis cinerea (0.78 ppm), with Botrytis cinerea (1.56 ppm) and in the assay with Botrytis cinerea (3.13 ppm) was 0% throughout.

`O=[N+]([O-])c1cc(C(F)(F)F)c(Cl)c([N+](=O)[O-])c1Nc1ncc(C(F)(F)F)cc1Cl` [fluazinam, 3-chloro-N-(3-chloro-5-trifluoromethyl-2-pyridyl)-α,α,α-trifluoro-2,6-dinitro-p-toluidine]: the inhibition at 0.1 ppm turned out to be 70% in the assay on Rhizoctonia solani (setting [1]) and 32% in the assay with Pythium graminicola (Pythium graminicola, 72 h, 0.1 ppm, read-out: Inhibition Rate of Mycelial Growth against Pythium graminicola (%)). Moreover, the results for the inhibition at 1 ppm in the assay on Rhizoctonia solani (setting [2]) and with Pythium graminicola (setting [4]) were 77% and 48%, respectively. For the same compound, the inhibition at 10 ppm in the assay on Rhizoctonia solani (setting [3]) came out at 85%; in the assay with Pythium graminicola (setting [5]) it was 60%. In addition, the inhibition at 100 ppm in the assay on Rhizoctonia solani (Rhizoctonia solani, 96 h, 100 ppm, read-out: Inhibition Rate of Mycelial Growth against Rhizoctonia solani (%)) worked out at 87%; in the assay with Pythium graminicola (setting [6]), 66%. Besides, in the assay on Botrytis cinerea (Botrytis cinerea, 72 h, 0.04 ppm, read-out: Inhibition Rate of Mycelial Growth against Botrytis cinerea (%)), the inhibition at 0.04 ppm worked out at 0%. Also, in the assay with Botrytis cinerea (Botrytis cinerea, 72 h, 0.08 ppm, read-out: Inhibition Rate of Mycelial Growth against Botrytis cinerea (%)), the inhibition at 0.08 ppm is 0%. Also, the inhibition at 0.16 ppm in the assay with Botrytis cinerea (Botrytis cinerea, 72 h, 0.16 ppm, read-out: Inhibition Rate of Mycelial Growth against Botrytis cinerea (%)) worked out at 80%.

Turning to `CO/N=C(/C(=O)OC)c1ccccc1COc1ccccc1C` [kresoxim-methyl], in the assay with Rhizoctonia solani (setting [1]), the inhibition at 0.1 ppm stood at 30%. Besides, the inhibition at 1 ppm in the assay with Rhizoctonia solani (setting [2]) is 39%; with Pythium graminicola (setting [4]), 56%. Moreover, the inhibition at 10 ppm in the assay on Rhizoctonia solani (setting [3]) amounted to 42%; in the assay with Pythium graminicola (setting [5]), 73%. Besides, the inhibition at 100 ppm with Pythium graminicola (setting [6]) came out at 62%. Also, in the assay on Botrytis cinerea (Botrytis cinerea, 72 h, 3.13 ppm, read-out: Inhibition Rate of Mycelial Growth against Botrytis cinerea (%)), the inhibition at 3.13 ppm amounted to 0%. The inhibition at 6.25 ppm in the assay on Botrytis cinerea (Botrytis cinerea, 72 h, 6.25 ppm, read-out: Inhibition Rate of Mycelial Growth against Botrytis cinerea (%)) worked out at 1%. Also, the inhibition at 12.5 ppm in the assay with Botrytis cinerea (Botrytis cinerea, 72 h, 12.5 ppm, read-out: Inhibition Rate of Mycelial Growth against Botrytis cinerea (%)) was determined as 1%.

In the case of `CNC(=O)/C(=N/OC)c1ccccc1Oc1ccccc1` [metominostrobin], the inhibition at 25 ppm in the assay with Botrytis cinerea (Botrytis cinerea, 72 h, 25 ppm, read-out: Inhibition Rate of Mycelial Growth against Botrytis cinerea (%)) stood at 0%. Further, in the assay with Botrytis cinerea (Botrytis cinerea, 72 h, 50 ppm, read-out: Inhibition Rate of Mycelial Growth against Botrytis cinerea (%)), the inhibition at 50 ppm was 1%. For the same compound, the inhibition at 100 ppm in the assay on Botrytis cinerea (Botrytis cinerea, 72 h, 100 ppm, read-out: Inhibition Rate of Mycelial Growth against Botrytis cinerea (%)) amounted to 3%.

Consider `CO/C=C(/C(=O)OC)c1ccccc1COc1cccc(C(F)(F)F)n1` [picoxystrobin], for which the “Inhibition Rate of Mycelial Growth against Botrytis cinerea (%)” value with Botrytis cinerea (6.25 ppm) was found to be 1%; in the assay with Botrytis cinerea (12.5 ppm), 2%; in the assay with Botrytis cinerea (25 ppm) it was 3%.

Take `COC(=O)N(OC)c1ccccc1COc1ccn(-c2ccc(Cl)cc2)n1` [pyraclostrobin]: the inhibition at 0.1 ppm with Rhizoctonia solani (setting [1]) was 26%. Moreover, the inhibition at 1 ppm in the assay on Rhizoctonia solani (setting [2]) was found to be 55%; in the assay with Pythium graminicola (setting [4]), 83%. The inhibition at 10 ppm with Rhizoctonia solani (setting [3]) was determined as 67%; with Pythium graminicola (setting [5]), 100%. Also, the inhibition at 100 ppm with Pythium graminicola (setting [6]) was determined as 100%. In the assay on Botrytis cinerea (setting [7]), the inhibition at 0.39 ppm was 0%. The inhibition at 0.78 ppm with Botrytis cinerea (setting [8]) was found to be 1%. For the same compound, in the assay on Botrytis cinerea (setting [9]), the inhibition at 1.56 ppm was 5%.

Regarding `CON=C(C(=O)OC)c1ccccc1CON=C(C)c1cccc(C(F)(F)F)c1` [trifloxystrobin], in the assay with Botrytis cinerea (setting [7]), the inhibition at 0.39 ppm was found to be 0%. Also, in the assay on Botrytis cinerea (setting [8]), the inhibition at 0.78 ppm turned out to be 0%. In addition, the inhibition at 1.56 ppm with Botrytis cinerea (setting [9]) is 0%.
